From paper PMC9054013, “FCHO controls AP2’s initiating role in endocytosis through a PtdIns(4,5)P2-dependent switch” (Science Advances, 2022)
Where no end group is shown, it is not given here.

Columns and labels:
Cμ2 = target: T1, Cμ2; conditions: read-out: KD of YxxΦ cargo peptide binding to Cμ2; cited from earlier work
T1 construct: Surface representations of the Cμ2 subdomain structure; His6; made in house; host or cells: Escherichia coli BL21 plyS
Text: page 20: Fig.S8 Details of FCHO C block binding to α -appendage and to Cµ2 A, B FCHO1 C block (claret) bound to AP2 α-appendage (blue). […] B 1.4 Å resolution 2Fo-Fc map contoured at 1.6σ. An apo structure of the α-appendage was used as MR search model (PDB 1W80 without ligands) – the direction of the peptide chain is clearly opposite to that of the published DP[FW], FxDxF motif/α-appendage complexes. C, D FCHO2 C block (claret ...

AP2 α-appendage = target: T2, AP2 α-appendage (Mus musculus, UniProt P17427); experiment: Isothermal titration calorimetry with α-appendage; assay type: binding; conditions: ITC
T2 construct: GST-tagged Cμ2 and α-appendage proteins were made as in ([51]); GST (cleaved yes); made in house; host or cells: Escherichia coli BL21 plyS
T2 sequence (P17427 701-938 limits assumed): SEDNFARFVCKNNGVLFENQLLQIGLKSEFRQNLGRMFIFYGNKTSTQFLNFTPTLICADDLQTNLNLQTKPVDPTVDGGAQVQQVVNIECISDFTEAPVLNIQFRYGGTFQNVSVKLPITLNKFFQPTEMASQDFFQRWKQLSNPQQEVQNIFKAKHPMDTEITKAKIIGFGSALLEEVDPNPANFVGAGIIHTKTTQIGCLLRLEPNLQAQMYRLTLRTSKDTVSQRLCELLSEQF

[1] = test system: BR4-mutated (K339A, K341A, K343A, and K345A) His6-MBP-Cμ2; experiment: GST pull-down of BR4-mutated His6-MBP-Cμ2; assay type: binding; conditions: Coomassie SDS-PAGE
Description: A measured amount of GST or GST-fusion protein was immobilized onto 60 μl of 50% slurry of GSH Sepharose beads in microfuge tubes and the volume made up to 750 μl with buffer. After incubation at 4°C with continuous mixing, the Sepharose beads were recovered by centrifugation (10,000g for 1 min), and the supernatants were removed. Each bead pellet was washed three times with cold assay buffer, and most of the buffer was carefully aspirated, leaving a final equivalent volume of ~50 μl.

## DYQRLN [TGN38, TGN38 YxxΦ cargo peptide (DYQRLN)]
Cμ2
  Kd: ~2 µM

## FCHO1 C: GST-FCHO1 C (residues 414 to 444), Fig. 4B construct ({GST}-SAPRTSSCAERLQSEEQVSKNLFGPPLESAF; UniProt O14526 414-444, looked up, fragment)
AP2 α-appendage
  n (stoichiometry) of C block peptide binding to α-appendage: 1.0

## FCHO2 C: GST-FCHO2 C (residues 413 to 444), Fig. 4B construct ({GST}-SAPPNEKGTSDLLAWDPLFGPSLDSSSSSSLT; UniProt Q0JRZ9 413-444, looked up, fragment)
AP2 α-appendage
  n (stoichiometry) of C block peptide binding to α-appendage: 1.0

## SDLLAWDPLFG [FCHO2 C peptide]
AP2 α-appendage; 100 mM tris pH 7.4, 150 mM NaCl, 0.25 mM TCEP, 12°C, mean ± SEM, minimum three independent runs, read-out: KD of C block peptide binding to α-appendage
  Kd: 100 to 200 µM

## SERINC3-L10: GST SERINC-L10 (residues 354 to 404), Serinc3 loop binding Cμ2 only at BR4 (RTSTNSQVDKLTLSGSDSVILGDTTTSGASDEEDGQPRRAVDNEKEGVQYS; also: GST fusion, end not given here)
[1]
  binding to BR4-mutated Cμ2 compared with WT Cμ2: severely inhibited
